As usually defined, the AC50 is the midpoint of the concentration-response curve, whichever way the signal moves.

Activity calls are given as the source filed them. No rule for the calls is given here. Bounds are passed on as bounds.

In PubChem BioAssay AID652266 (Broad Institute, 2013) one finds AC50 data, which are given here for twelve compounds.

In this assay the target is Protein disulfide-isomerase A3 (Homo sapiens) (UniProt P30101). Nature of the assay: ERp57 (PDIA3) enzyme inhibition – biochemical, dry powder samples, plate reader, selectivity assay, dose response (AID 652266). The following applies: purified ERp57 enzyme.
Protein disulfide-isomerase A3 (Homo sapiens), sequence (P30101 whole entry, looked up): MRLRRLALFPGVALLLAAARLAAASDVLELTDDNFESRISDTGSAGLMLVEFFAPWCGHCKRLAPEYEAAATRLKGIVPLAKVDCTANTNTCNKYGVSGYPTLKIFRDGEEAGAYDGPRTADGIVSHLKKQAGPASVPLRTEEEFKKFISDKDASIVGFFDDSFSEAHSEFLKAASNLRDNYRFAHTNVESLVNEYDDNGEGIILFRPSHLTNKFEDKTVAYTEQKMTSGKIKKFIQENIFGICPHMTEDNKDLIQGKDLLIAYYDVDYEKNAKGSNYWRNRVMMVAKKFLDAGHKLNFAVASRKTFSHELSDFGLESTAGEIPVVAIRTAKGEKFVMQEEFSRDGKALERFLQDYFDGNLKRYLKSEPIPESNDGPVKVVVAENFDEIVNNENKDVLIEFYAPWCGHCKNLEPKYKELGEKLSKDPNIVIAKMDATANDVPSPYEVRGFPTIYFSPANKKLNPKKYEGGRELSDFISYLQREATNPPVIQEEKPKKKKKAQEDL

With `CCOC(=O)c1c(CN2CCN(CCO)CC2)n(-c2ccccc2)c2cc(Br)c(O)cc12`, the AC50 was > 30 µM (inactive).
As for `CCOC(=O)C1(CCOc2ccccc2)CCN(Cc2ccc(O)c(Cl)c2)CC1`, the figure is > 30 µM (inactive); as for `CC(C)(C)OC(=O)C1(CCOc2ccccc2)CCN(Cc2ccc(O)c(Cl)c2)CC1`, > 30 µM (inactive).
`CCN(C)C(=O)C1(CCOc2ccccc2)CCN(Cc2ccc(O)c(Cl)c2)CC1`: the AC50 is > 30 µM (inactive).
As for `C/C1=C\C[C@H](OC(=O)c2ccc(O)cc2)/C(C)=C/[C@@H](O)C(C)(C)CCC1`, the figure is > 30 µM (inactive); as for `CCOC(=O)C1(CCOc2ccccc2)CCN(Cc2ccc(OC)c(Cl)c2)CC1`, > 30 µM (inactive); as for `CCOC(=O)C1(CCOc2ccccc2)CCN(C(=O)c2ccc(O)c(Cl)c2)CC1`, > 30 µM (inactive).
In the case of `CC(C)OC(=O)C1(CCOc2ccccc2)CCN(Cc2ccc(O)c(Cl)c2)CC1`, the AC50 is > 30 µM (inactive).
The same measure for `O=C(NC1CCCC1)C1(CCOc2ccccc2)CCN(Cc2ccc(O)c(Cl)c2)CC1`: > 30 µM (inactive); for `O=C(Nc1ccccc1)C1(CCOc2ccccc2)CCN(Cc2ccc(O)c(Cl)c2)CC1`: > 30 µM (inactive); for `C/C1=C\[C@@H](O)C(C)(C)CCCC2(C)OC2C[C@@H]1OC(=O)c1ccc(O)cc1` (some centres not stated): > 30 µM (inactive).
For the compound `CCOC(=O)C1(CCOc2ccccc2)CCN(Cc2ccc(O)cc2)CC1`, the AC50 is > 30 µM (inactive).
